The text below walks through data of patent US12616751B2, “Photosensitizing antibody-fluorophore conjugates” (The USA, as represented by the Secretary, Department of …, priority 2010, dated 2026).

The test system of one data set is A431 tumors. Briefly: In vivo nanodrug-delivery after PIT (super EPR). Further details: species or system mice. How it is done:
In vivo nanodrug-delivery after photoimmunotherapy. Six-week-old to 8-week-old female homozygote athymic nude mice were purchased from Charles River (National Cancer Institute Frederick). During treatment, mice were anesthetized with isoflurane. Two million A431 cells were injected subcutaneously in the right and left dorsums of each mouse. Five days after cell injection, 100 μg of Pan-IR700 was administered intravenously, and 1 day later, either side of tumor was irradiated with NIR light from a red-light-emitting diode at wavelengths of 670-690 nm and a power density of 10-100 J cm^−2, as measured with an optical power meter (PM 100 (Thorlabs)). One hour after PIT, Pan-IR800 (100 μg), Qtracker 800 Non-Targeted Quantum dots (32.5 pmol), or DaunoXome (30 mg kg^−1) were injected intravenously, and the in vivo fluorescence images were obtained with a Pearl Imager (LI-COR Biosciences) and a Maestro Imager (CRi). For MR imaging, SPIO (Feridex) was administered intravenously 1 h post-PIT and MR images were obtained. The tumors were excised, and frozen or paraffin-embedded for histological study and fluorescence microscopy study after ex vivo imaging.
In vivo fluorescence imaging. Five days after injection of two million A431 or 3T3-HER2 cells in right and left dorsums, and seven days after MDA-MB-468 cells injection in mammary pads, tumor volumes of approximately 75 mm^3 were selected. Signals of IR700 and IR800 was detected with a fluorescence camera (Pearl Imager, LI-COR Biosciences) using the 700 and 800 nm fluorescence channel Qdot800 was detected with Maestro in vivo Imaging System (CRi) using a band-pass filter, which ranges between 575 to 605 nm (excitation) and a long-pass NIR filter over 800 nm (emission). Fluorescence images of daunorubicin were also obtained with Maestro using a band-pass filter from 503 to 555 nm (excitation) and a long-pass green filter over 580 nm (emission). The tunable emission filter was automatically stepped in 10 nm increments from 650 to 950 nm and from 500 to 800 nm for the NIR and green filter sets at constant exposure. The spectral fluorescence images consist of autofluorescence spectra and the spectra from Qdot800 and daunorubicin, which were then unmixed, based on their spectral patterns using commercial software (Maestro software; CRi). Mice were sacrificed with carbon dioxide immediately after in vivo imaging. The tumors were excised, and frozen or paraffin-embedded for histological study and fluorescence microscopy study after ex vivo imaging.
Fluorescence microscopy. Ten-μm-thick frozen or paraffin sections were prepared and fluorescence in tumor sections was detected using an Olympus BX81 microscope (Olympus America, Inc., Melville, N.Y.) equipped with the following filters: excitation wavelength 590 to 650 nm, and 480 to 550 nm, emission wavelength 662.5 to 747.5 nm, 765 to 855 nm, and 590 nm long pass for IR700, Qdot800, and daunorubicin, respectively. Transmitted light differential interference contrast images were also acquired. H&E staining and Prussian Blue staining were performed according to standard protocol.
Optimal timing of second shot. To determine the optimal timing of second shot, Pan-IR800 (100 μg) was administered intravenously into A431 bearing mice at 1, 6, and 24 h after PIT treatment, and the dynamic imaging for 1 h was carried out with Pearl Imager according to the protocol described above.

A further data set has as its system MDA-MB-468 tumors. The data set can be described thus: In vivo delivery of Pan-IR800 after Pan-IR700 PIT. On the set-up: species or system mice. To be noted: 50 J/cm2 to right side tumor; agent 1 h after PIT. The text has this:
In vivo fluorescence imaging. Five days after injection of two million A431 or 3T3-HER2 cells in right and left dorsums, and seven days after MDA-MB-468 cells injection in mammary pads, tumor volumes of approximately 75 mm^3 were selected. Signals of IR700 and IR800 was detected with a fluorescence camera (Pearl Imager, LI-COR Biosciences) using the 700 and 800 nm fluorescence channel Qdot800 was detected with Maestro in vivo Imaging System (CRi) using a band-pass filter, which ranges between 575 to 605 nm (excitation) and a long-pass NIR filter over 800 nm (emission). Fluorescence images of daunorubicin were also obtained with Maestro using a band-pass filter from 503 to 555 nm (excitation) and a long-pass green filter over 580 nm (emission). The tunable emission filter was automatically stepped in 10 nm increments from 650 to 950 nm and from 500 to 800 nm for the NIR and green filter sets at constant exposure. The spectral fluorescence images consist of autofluorescence spectra and the spectra from Qdot800 and daunorubicin, which were then unmixed, based on their spectral patterns using commercial software (Maestro software; CRi). Mice were sacrificed with carbon dioxide immediately after in vivo imaging. The tumors were excised, and frozen or paraffin-embedded for histological study and fluorescence microscopy study after ex vivo imaging. […]

For data set [1] the following is noted: IR700 at absorption maximum 689 nm; Photofrin 630 nm; Foscan 652 nm; NPe6 654 nm; cited from earlier work.
Data set [2] is described as follows: Extinction coefficient of photosensitizers. The format is physicochemical. The text has this:
Currently commercially available from LI-COR (Lincoln, Nebr.). IR700 has several favorable chemical properties. Amino-reactive IR700 is a relatively hydrophilic dye and can be covalently conjugated with an antibody using the NHS ester of IR700. IR700 also has more than 5-fold higher extinction coefficient (2.1×10^5 M^−1cm^−1 at the absorption maximum of 689 nm), than conventional photosensitizers such as the hematoporphyrin derivative Photofrin® (1.2×10^3 M^−1cm^−1 at 630 nm), meta-tetrahydroxyphenylchlorin; Foscan® (2.2×10^4 M^−1cm^−1 at 652 nm), and mono-L-aspartylchlorin e6; NPe6/Laserphyrin® (4.0×10^4 M^−1cm^−1 at 654 nm).

For the next data set, the system named is 3T3/HER2+ cells. The data set can be described thus: Photoimmunotherapy (PIT) phototoxicity, LIVE/DEAD assay. The format is cell-based. To be noted: 200 nM, equivalent IR700 concentration of conjugate. On the procedure:
Cells were grown in RPMI 1640 supplemented with 10% fetal bovine serum and 1% penicillin/streptomycin in tissue culture flasks in a humidified incubator at 37° C. in an atmosphere of 95% air and 5% carbon dioxide.
Culture medium was replaced with phenol red-free medium after washing with phosphate buffered saline (PBS).

Data set [3] can be described thus: Excretion of free and catabolized IR700. Particulars: in vivo.

Where only a bound is given, the exact number is not on record here.

For “Pan-IR800: panitumumab conjugated to IRDye 800CW”, the “change of perfusion by PIT with time after treatment” value in the data set on A431 tumors (Pan-IR800 given 1, 6, and 24 h after PIT) is listed as “completely stopped within 24 h”. In the data set with A431 tumors (agent i.v. 1 h after PIT of contralateral tumor), the “uptake/signal in control tumors without NIR light” value is recorded as “no change on signal intensities”. In the data set on A431 tumors (agent i.v. 1 h after Pan-IR700 PIT), the “accumulation in PIT-treated tumors” value is “facilitated the permeability”. In the data set on A431 tumors (mouse, in vivo), the “signal intensities in PIT-treated tumors versus light dose” value was “increased with time in a light dose-dependent manner” and the “tumor uptake when given 24 h after PIT” value was “cannot be taken up by the tumor”. The “tumor shown in dynamic images” value in the data set with MDA-MB-468 tumors is on record as “only the right sided tumor was clearly shown up within 10 min”.
With `C=Cc1c(C)c2cc3nc(c(CC(=O)N[C@@H](CC(=O)[O-])C(=O)[O-])c4[nH]c(cc5nc(cc1[nH]2)C(C)=C5CC)c(C)c4C(=O)[O-])[C@@H](CCC(=O)[O-])[C@@H]3C.[Na+].[Na+].[Na+].[Na+]` [NPe6/Laserphyrin®, mono-L-aspartylchlorin e6], the extinction coefficient in data set [1] is 40000 M⁻¹ cm⁻¹.
Regarding IRDye® 700DX [IR700], the “extinction coefficient higher than conventional photosensitizers” value in data set [2] is on record as “more than 5 fold”. In the data set with 3T3/HER2+ cells, the “phototoxicity of dye alone” value is “did not incorporate into the cells or induce phototoxcity in cells”. For the same compound, in data set [3], the organ accumulation entry is given as “without accumulation in any specific organ” and the “time to excretion into urine” value was at most 1 h. Also, in data set [1], the extinction coefficient is 210000 M⁻¹ cm⁻¹.
In the case of Photofrin®, the extinction coefficient in data set [1] was 1200 M⁻¹ cm⁻¹.
Consider `Oc1cccc(-c2c3nc(c(-c4cccc(O)c4)c4ccc([nH]4)c(-c4cccc(O)c4)c4nc(c(-c5cccc(O)c5)c5ccc2[nH]5)CC4)C=C3)c1` [Foscan®, meta-tetrahydroxyphenylchlorin], for which the extinction coefficient in data set [1] was 22000 M⁻¹ cm⁻¹.
